According to patent publication US20190344265A1, “Networked Cell Holder Chip” (priority 2018, published 2019):

Test system: breast cancer cells
Assay: Cell protrusion length of breast cancer cells in the networked cell-holder chip (time course imaging)
Type: cell-based
Text: To load the cells into the chip of the present invention, a medium containing suspended cells is dropped onto the surface of the well plate of a chip of the present invention via a multichannel pipette or liquid handling system. In some embodiments of the present invention, 20-ml of the medium is dropped onto a chip of the present invention having a width of 86 mm, a length of 128 mm, and height of 14 mm. The chip is loaded on one of the receptors 302 of the bucket rotor 300. The bucket rotor is spun by the centrifuge 304 to drive the cells into the microwells of the chip. […] Filter papers (e.g., manufactured by Whatman) are used to swipe away the unloaded cells. Finally, the cells are cultured at 37° C. in the chip 100 a humidified atmosphere with 5% CO2, to enable protrusions to extend in the microchannels. The cells are also stained (for example, with green fluorescent protein—GFP) to enhance visibility of the cells and protrusions. […] The loaded breast cancer cells in both chips were incubated overnight. In the chip that was to be treated with the drug, the medium was replaced by a fresh culture medium mixed with paclitaxel concentration of 0.5 μM, after the incubation period.

Structure (SMILES): CC(=O)O[C@H]1C(=O)[C@@]2(C)[C@H]([C@H](OC(=O)c3ccccc3)[C@]3(O)C[C@H](OC(=O)[C@H](O)[C@@H](NC(=O)c4ccccc4)c4ccccc4)C(C)=C1C3(C)C)[C@]1(OC(C)=O)CO[C@@H]1C[C@@H]2O [paclitaxel]
- time until effects of the drug on the cancer cells were clear (breast cancer cells in chip, paclitaxel 0.5 μM): within one hour
- normalized length of cell protrusion over time (breast cancer cells incubated overnight in chip, then medium with paclitaxel 0.5 μM, sample of 51 cells (FIG. 29), untreated comparison 64 cells (FIG. 28)): reduces the length of the protrusions
